# In ChEMBL document CHEMBL6092185, “Discovery of glycosidated glycyrrhetinic acid derivatives: Natural product-based soluble epoxide hydrolase inhibitors” (Eur J Med Chem, 2024):
# What was measured:
# [1] = in vivo; details: BALB/c, mouse, plasma, po, 20 mg/kg
# Description: AUC (0 to 24 hrs) in BALB/c mouse plasma at 20 mg/kg, IG measured upto 24 hrs by LC-MS/MS analysis
# [2] = in vivo; details: BALB/c, mouse, plasma, po, 20 mg/kg; remark: listed apart in the source
# Description: Cmax in BALB/c mouse plasma at 20 mg/kg, IG measured upto 24 hrs by LC-MS/MS analysis
# [3] = in vivo; details: BALB/c, mouse, liver, po, 20 mg/kg
# Description: Cmax in BALB/c mouse liver at 20 mg/kg, IG measured upto 24 hrs by LC-MS/MS analysis
# [4] = target: T1, Bifunctional epoxide hydrolase 2 (Mus musculus, UniProt P34914); test: Inhibition of C57BL/6J mouse cortex sEH using 14,15-EET as substrate preincubated for 15 mins followed by substrate addition measured after 2 hrs by UPLC-MS/MS analysis
# T1 sequence (P34914 whole entry): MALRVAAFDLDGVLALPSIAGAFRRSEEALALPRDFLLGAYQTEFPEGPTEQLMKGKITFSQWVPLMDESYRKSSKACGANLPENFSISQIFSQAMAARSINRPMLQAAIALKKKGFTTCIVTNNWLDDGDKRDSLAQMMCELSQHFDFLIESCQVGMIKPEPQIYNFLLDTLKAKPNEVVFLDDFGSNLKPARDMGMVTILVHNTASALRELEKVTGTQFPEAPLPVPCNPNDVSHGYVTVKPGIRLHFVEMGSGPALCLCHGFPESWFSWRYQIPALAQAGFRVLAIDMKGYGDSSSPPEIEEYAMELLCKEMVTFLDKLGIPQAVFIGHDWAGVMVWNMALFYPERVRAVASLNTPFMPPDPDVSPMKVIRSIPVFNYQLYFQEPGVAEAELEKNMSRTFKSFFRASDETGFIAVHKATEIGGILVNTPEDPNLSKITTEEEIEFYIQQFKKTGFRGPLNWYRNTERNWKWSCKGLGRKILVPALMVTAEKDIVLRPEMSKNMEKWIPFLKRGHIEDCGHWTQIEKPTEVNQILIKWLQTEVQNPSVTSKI
# [5] = in vivo; details: BALB/c, mouse, liver/plasma, po, 20 mg/kg
# Description: Ratio of Cmax in BALB/c mouse liver to plasma at 20 mg/kg, IG measured upto 24 hrs by LC-MS/MS analysis
# [6] = Cytotoxicity against human HepG2 cells incubated overnight by CCK8 assay
# [7] = Cytotoxicity against HEK293T cells incubated overnight by CCK8 assay; details: human
# [8] = in vivo; details: BALB/c, mouse, liver/plasma, po, 20 mg/kg; remark: listed apart in the source
# Description: Ratio of AUC (0 to 24 hrs) in BALB/c mouse liver to plasma at 20 mg/kg, IG measured upto 24 hrs by LC-MS/MS analysis
# [9] = organism: Mus musculus; test: animal or person; details: BALB/c, po, 6 h, read-out: INH
# Description: Anti-inflammatory activity in BALB/c mouse model of Carrageenan-induced paw edema assessed as inhibition of edema at 20 mg/kg, IG measured upto 6 hrs relative to control
# [10] = target: T2, Bifunctional epoxide hydrolase 2 (Homo sapiens, UniProt P34913); test: Inhibition of sEH (unknown origin) using PHOME as substrate incubated for 1 hr by fluorimetric assay
# T2 sequence (P34913 whole entry): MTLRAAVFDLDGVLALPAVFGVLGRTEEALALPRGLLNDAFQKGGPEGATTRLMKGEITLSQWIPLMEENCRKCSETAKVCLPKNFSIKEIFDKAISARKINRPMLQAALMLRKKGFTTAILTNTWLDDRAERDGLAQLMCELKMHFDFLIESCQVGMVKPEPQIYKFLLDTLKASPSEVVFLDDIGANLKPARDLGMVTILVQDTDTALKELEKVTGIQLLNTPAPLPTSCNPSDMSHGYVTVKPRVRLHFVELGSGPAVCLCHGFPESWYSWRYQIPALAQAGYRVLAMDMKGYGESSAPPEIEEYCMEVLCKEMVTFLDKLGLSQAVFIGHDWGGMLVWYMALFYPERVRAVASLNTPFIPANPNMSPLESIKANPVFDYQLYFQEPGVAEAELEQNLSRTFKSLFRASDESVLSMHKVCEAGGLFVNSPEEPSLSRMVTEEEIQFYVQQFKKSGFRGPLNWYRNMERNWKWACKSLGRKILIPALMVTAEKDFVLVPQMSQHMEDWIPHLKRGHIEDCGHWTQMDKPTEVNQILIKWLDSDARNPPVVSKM
AUC(0-t) at 24 h [1] [ng·h/mL],Cmax at 24 h [2] [ng/mL],Cmax at 24 h [3] [ng/g],IC50 [4] [µM],Kp at 24 h [5],Kp at 24 h [8],IC50 [10] [µM],SMILES,IC50 [6] [µM],IC50 [7] [µM],inhibition in vivo at 20 mg/kg [9] [%]
655,194,2140,0.121,11,8.91,,CC1(C)[C@@H](O[C@H]2O[C@H](CO)[C@@H](O)[C@H](O)[C@@H]2O)CC[C@]2(C)[C@H]3C(=O)C=C4[C@H]5C[C@@](C)(CNC(=O)NCC6CCOCC6)CC[C@]5(C)CC[C@@]4(C)[C@]3(C)CC[C@@H]12,17.6,46.6,
,,,0.0861,,,,CC1(C)[C@@H](O[C@H]2OC[C@@H](O)[C@@H](O)[C@@H]2O)CC[C@]2(C)[C@H]3C(=O)C=C4[C@H]5C[C@@](C)(CNC(=O)NCC6CCOCC6)CC[C@]5(C)CC[C@@]4(C)[C@]3(C)CC[C@@H]12,,,37.4
,,,,,,11.1,C[C@H]1[C@H](C)CC[C@]2(C(=O)O)CC[C@]3(C)C(=CC[C@@H]4[C@@]5(C)CC[C@H](O)C(C)(C)[C@@H]5CC[C@]43C)[C@H]12 [URSOLIC ACID],,,
